The source of these data is US11401278B2, “Macrocyclic indole derivatives” (The Broad Institute, Inc., priority 2017, dated 2022).

Broadly, the IC50 is the concentration that gives 50% inhibition. One may read the EC50 as the concentration giving half of the maximal effect. Higher therefore signals weaker potency.

One series addresses BCL-XL (Homo sapiens (Human), UniProt Q07817). Put plainly: Protein-protein interaction assay BCL-XL/Bad BH3 peptide (BCL-XL assay, TR-FRET). It is filed as binding. The following applies: His-BCL-XL / Bad BH3 peptide, median. The essentials: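 His-tagged human BCL-XL (aa 1-212, 1 nM final) was preincubated 10 min at 22 °C with compound (11 concentrations, 0.1 nM–20 μM), then biotinylated Bad BH3 peptide (1 nM) and TR-FRET reagents were added. Incubation: 1 h at 22 °C, then overnight at 4 °C, pH 7 Tris buffer. IC50 from 4-parameter fit of 665/620 ratio.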
For orientation: In TR-FRET formats the signal depends on donor and acceptor labels being close together.

Series [1] relates to SUDHL10. Briefly: Induction of caspase-3/7 activity (Assay 4), SUDHL10. The class given is cell-based. The following applies: caspase-3/7 induction, median. The essentials: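 Caspase-3/7 activity measured by Caspase-Glo 3/7 luminescence in DLBCL cells after 3 h compound treatment at 37 °C. Medium-only background subtracted. EC50 fitted with C0 fixed at 1 and top set to the reference compound's plateau/max induction.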

Another series deals with AMO-1. Put plainly: Antiproliferation assay (Assay 7), AMO-1. It is filed as cell-based. The following applies: CellTiter-Glo, several values per example, read-out: Antiproli AMO-1 [M] IC50. The essentials:
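Cells were treated with compound for 72 hours at 37° C in a humidified incubator, and viability was then read by CellTiter-Glo luminescence. A parallel reference plate was read at time zero (day 0) in the same way for baseline determination.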
For orientation: Cellular ATP, detected with luciferase, serves as a proxy for viable cell number.

In series [2] the test system is SUDHL10. Briefly: Induction of cytotoxicity (Assay 6), SUDHL10. The following applies: read-out: Cytotox SUDHL10 [M] (median) IC50, CellTiter-Glo, 5 hours, SUDHL10.
Protocol: Assay 6 Induction of Cytotoxicity Upon Treatment of Cells with Selected Compounds
Therefore, cytotoxicity assays were run in parallel in SUDHL5 and SUDHL10 cells.
The different cell lines were plated in culture medium (RPMI 1640 [GIBCO #22400-089] supplemented with 10% Fetal Bovine Serum) at a density of 3,300 cells in 30 μl/well in a sterile, solid black, flat bottom, polystyrene, TC-treated 384-well microplate (Corning #3571) using Multidrop Combi Reagent Dispenser. As a control, medium without cells was also added to the plate. Cells were incubated in a humidified incubator at 37° C. overnight. On the next day, the cells were treated with compounds (stock solution, 10 mM in DMSO) using the HP D300 Digital Dispenser in a concentration range of 3.3×10e-5 M (33 μM) to 5×10e-9 M (5 nM) in a single-dot curve with at least 16 dilutions and a DMSO concentration of 0.33%. Rim wells were excluded. The cells were incubated for 5 hours in a humidified incubator at 37° C. After this incubation, 30 μl of CellTiter-Glo® Luminescent Cell Viability reagent (Promega, G7573) was added to each well using the Multidrop Combi Reagent Dispenser, followed by 15 minutes incubation on a shaker at room temperature. Finally, luminescence was read at 0.1 ms, with a gain of 3000 using the PHERAstar FS microplate reader (BMG Labtech).

The structures appear in SMILES notation. Several values for one entry are separate records, joined by “and”; a condition that tells them apart may be missing. Equal values may be shown once. Where a name gives a salt, the structure may show the parent alone. Read-outs that look alike come from different tables or passages of the source.

BCL-XL, sequence (Q07817 other isoform, or with tags, fused parts or gaps): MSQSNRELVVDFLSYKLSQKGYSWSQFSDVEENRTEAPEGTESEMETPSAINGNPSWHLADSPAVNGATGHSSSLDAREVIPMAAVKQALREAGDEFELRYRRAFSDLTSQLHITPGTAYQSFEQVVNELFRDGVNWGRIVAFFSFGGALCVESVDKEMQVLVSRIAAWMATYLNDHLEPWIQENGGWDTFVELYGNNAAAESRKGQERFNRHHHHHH

`CCc1c2c(nn1C)CN(C)S(=O)(=O)CCCn1c(C(=O)O)c(CCCOc3cccc4cc(F)ccc34)c3ccc(Cl)c-2c31` (single isomer, unassigned; enantiomer 2) [Example 37, (−)-4-chloro-3-ethyl-7-{3-[(6-fluoronaphthalen-1-yl)oxy]propyl}-2,14-dimethyl-13,13-dioxo-10,11,12,13,14,15-hexahydro-2H-13lambda^6-pyrazolo[3′,4′:4,5][1,2,8]thiadiazacycloundecino-[6,7,8-hi]indole-8-carboxylic acid (Enantiomer 2)]: the IC50 against BCL-XL amounted to 18000 nM; in the series on AMO-1 (72 hours) it was 2.8e-05 M; in the series on SUDHL10 [2] it was 9e-06 M. Moreover, the midpoint of the response with SUDHL10 [1] (3 hours), the EC50, lay at 12000 nM.
`Cc1c2c(nn1C)CN(C)S(=O)(=O)CCCn1c(C(=O)O)c(CCCOc3cccc4cc(F)ccc34)c3ccc(F)c-2c31` (single isomer, unassigned; enantiomer 2) [Example 39, (+)-4-fluoro-7-{3-[(6-fluoronaphthalen-1-yl)oxy]propyl}-2,3,14-trimethyl-13,13-dioxo-10,11,12,13,14,15-hexahydro-2H-13lambda^6-pyrazolo[3′,4′:4,5][1,2,8]thiadiazacycloundecino-[6,7,8-hi]indole-8-carboxylic acid (Enantiomer 2)]: the IC50 is more than 20000 nM at BCL-XL, 1.4e-06 M in the series on AMO-1 (72 hours) and 6.7e-07 M in the series on SUDHL10 [2]. Moreover, in the series on SUDHL10 [1] (3 hours), the EC50 amounted to 730 nM.
The matching figures for `Cc1c2c(nn1C)CN(C1CC1)S(=O)(=O)CCCn1c(C(=O)O)c(CCCOc3cccc4cc(F)ccc34)c3ccc(Cl)c-2c31` (single isomer, unassigned; enantiomer 2) [Example 43, (+)-4-chloro-14-cyclopropyl-7-{3-[(6-fluoro-1-naphthyl)oxy]propyl}-2,3-dimethyl-11,12,14,15-tetrahydro-2H,10H-pyrazolo[3′,4′:4,5][1,2,8]thiadiazacycloundecino[6,7,8-hi]indole-8-carboxylic acid 13,13-dioxide N-diethylamine salt (Enantiomer 2)]: more than 20000 nM, 1.1e-05 M, 1.3e-05 M and 9400 nM.
In the case of `Cc1c2c(nn1C)C(CCN1CCOCC1)N(C)S(=O)(=O)CCCn1c(C(=O)O)c(CCCOc3cccc4ccccc34)c3cccc-2c31` (single isomer, unassigned; enantiomer 2) [Example 46, 2,3,14-trimethyl-15-[2-(morpholin-4-yl)ethyl]-7-{3-[(naphthalen-1-yl)oxy]propyl}-13,13-dioxo-10,11,12,13,14,15-hexahydro-2H-13lambda^6-pyrazolo[3′,4′:4,5][1,2,8]thiadiazacycloundecino[6,7,8-hi]indole-8-carboxylic acid N-ethylethanamine Salt (Enantiomer 2)], the IC50 was more than 20000 nM against BCL-XL; 5.3e-07 M and 5e-07 M in the series with AMO-1 (72 hours); 6.1e-07 M with SUDHL10 [2]. This compound came in with a half-maximal effective concentration (EC50) with SUDHL10 [1] (3 hours) of 380 nM.
As for `Cc1c2c(nn1C)CNS(=O)(=O)CCCn1c(C(=O)O)c(CCCOc3cccc4cc(F)ccc34)c3ccc(Cl)c-2c31` (single isomer, unassigned; enantiomer 2) [Example 52, 4-chloro-7-{3-[(6-fluoronaphthalen-1-yl)oxy]propyl}-2,3-dimethyl-13,13-dioxo-10,11,12,13,14,15-hexahydro-2H-13lambda^6-pyrazolo[3′,4′:4,5][1,2,8]thiadiazacycloundecino[6,7,8-hi]indole-8-carboxylic acid (Enantiomer 2)], the values for the IC50 against BCL-XL, in the series with AMO-1 (72 hours) and in the series with SUDHL10 [2] were 16000 nM, 1.1e-05 M and 1.7e-05 M, respectively. For the same compound, the EC50 in the series on SUDHL10 [1] (3 hours) is more than 33000 nM.
The like results for `CCc1c2c(nn1C)C(CCC1CCOCC1)N(C)S(=O)(=O)CCCn1c(C(=O)O)c(CCCOc3cccc4cc(F)ccc34)c3ccc(Cl)c-2c31` (single isomer, unassigned; enantiomer 2) [Example 62, (−)-4-chloro-3-ethyl-7-{3-[(6-fluoronaphthalen-1-yl)oxy]propyl}-2,14-dimethyl-15-[2-(oxan-4-yl)ethyl]-13,13-dioxo-10,11,12,13,14,15-hexahydro-2H-13lambda^6-pyrazolo[3′,4′:4,5][1,2,8]thiadiazacycloundecino[6,7,8-hi]indole-8-carboxylic acid (Enantiomer 2)] were, in that order, 18000 nM, 3.8e-06 M, 9.7e-06 M and 6800 nM.
For `CCc1c2c(nn1C)C(CCC1CCOCC1)N(C)S(=O)(=O)CCCn1c(C(=O)O)c(CCCOc3cccc4cc(F)ccc34)c3ccc(Cl)c-2c31` (single isomer, unassigned; enantiomer 3) [Example 63, (+)-4-chloro-3-ethyl-7-{3-[(6-fluoronaphthalen-1-yl)oxy]propyl}-2,14-dimethyl-15-[2-(oxan-4-yl)ethyl]-13,13-dioxo-10,11,12,13,14,15-hexahydro-2H-13lambda^6-pyrazolo[3′,4′:4,5][1,2,8]thiadiazacycloundecino[6,7,8-hi]indole-8-carboxylic acid (Enantiomer 3)], the IC50 against BCL-XL is 19000 nM; in the series on AMO-1 (72 hours), 4e-08 M and 4.5e-08 M and 3.3e-08 M; in the series with SUDHL10 [2], 8.6e-08 M. The compound also displayed an EC50 in the series on SUDHL10 [1] (3 hours) of 42 nM.
As to `CCc1c2c(nn1C)C(CCC1CCOCC1)N(C)S(=O)(=O)CCCn1c(C(=O)O)c(CCCOc3cccc4cc(F)ccc34)c3ccc(Cl)c-2c31` (single isomer, unassigned; enantiomer 4) [Example 64, (−)-4-chloro-3-ethyl-7-{3-[(6-fluoronaphthalen-1-yl)oxy]propyl}-2,14-dimethyl-15-[2-(oxan-4-yl)ethyl]-13,13-dioxo-10,11,12,13,14,15-hexahydro-2H-13lambda^6-pyrazolo[3′,4′:4,5][1,2,8]thiadiazacycloundecino[6,7,8-hi]indole-8-carboxylic acid (Enantiomer 4)], the IC50 at BCL-XL was more than 20000 nM; with AMO-1 (72 hours), 1e-06 M; with SUDHL10 [2], 2.9e-06 M. The EC50 with SUDHL10 [1] (3 hours) is 1600 nM.
With `CCc1c2c(nn1C)CN(C)S(=O)(=O)CCCn1c(C(=O)O)c(CCCOc3cccc4ccccc34)c3ccc(Cl)c-2c31` [Example 20, (rac)-13-Chloro-12-ethyl-8,11-dimethyl-1-(3-(naphthalen-1-yloxy)propyl)-5,6,9,11-tetrahydro-4H,8H-pyrazolo[3′,4′:4,5][1]thia[2,8]diazacycloundecino[6,7,8-hi]indole-2-carboxylic acid 7,7-dioxide], the IC50 at BCL-XL is more than 20000 nM; in the series on AMO-1 (Homo sapiens, AMO1, 72 h), 2.8e-06 M; in the series with SUDHL10 [2] (Homo sapiens, SU-DHL10, 5 h), 1.7e-06 M. For the same compound, a half-maximal response in the series with SUDHL10 [1] (Homo sapiens, SU-DHL10, 3 h) (EC50) required 2100 nM.
The like results for `CCc1c2c(nn1C)CN(C)S(=O)(=O)CCCn1c(C(=O)O)c(CCCOc3cccc4c3CCC4)c3ccc(Cl)c-2c31` [Example 21, (rac)-13-Chloro-1-(3-((2,3-dihydro-1H-inden-4-yl)oxy)propyl)-12-ethyl-8,11-dimethyl-5,6,9,11-tetrahydro-4H,8H-pyrazolo[3′,4′:4,5][1]thia[2,8]diazacycloundecino[6,7,8-hi]indole-2-carboxylic acid 7,7-dioxide] were, in that order, more than 20000 nM, 2.6e-06 M, 1.8e-06 M and 1400 nM.
Take `CCc1c2c(nn1C)CN(C)S(=O)(=O)CCCn1c(C(=O)O)c(CCCOc3cc(C)c(Cl)c(C)c3)c3ccc(Cl)c-2c31` [Example 22, (rac)-13-Chloro-1-(3-(4-chloro-3,5-dimethylphenoxy)propyl)-12-ethyl-8,11-dimethyl-4,5,6,8,9,11-hexahydropyrazolo[3′,4′:4,5][1,2,8]thiadiazacycloundecino[6,7,8-hi]indole-2-carboxylic acid 7,7-dioxide]: the IC50 against BCL-XL was more than 20000 nM; in the series on AMO-1 (Homo sapiens, AMO1, 72 h) it was 2.6e-06 M; in the series on SUDHL10 [2] (Homo sapiens, SU-DHL10, 5 h), 3.6e-06 M. Also, in the series with SUDHL10 [1] (Homo sapiens, SU-DHL10, 3 h), the midpoint of the response, the EC50, lay at 3300 nM.
`CCc1c2c(nn1C)CN(C)S(=O)(=O)CCCn1c(C(=O)O)c(CCCOc3cccc4c3CCCC4)c3ccc(Cl)c-2c31` [Example 23, (rac)-13-Chloro-12-ethyl-8,11-dimethyl-1-(3-((5,6,7,8-tetrahydronaphthalen-1-yl)oxy)propyl)-4,5,6,8,9,11-hexahydropyrazolo[3′,4′:4,5][1,2,8]thiadiazacycloundecino[6,7,8-hi]indole-2-carboxylic acid 7,7-dioxide]: the IC50 at BCL-XL was more than 20000 nM; in the series with AMO-1 (Homo sapiens, AMO1, 72 h), 3.8e-06 M; in the series on SUDHL10 [2] (Homo sapiens, SU-DHL10, 5 h), 2.5e-06 M. The EC50 with SUDHL10 [1] (Homo sapiens, SU-DHL10, 3 h) turned out to be 2300 nM.
The like results for `CCc1c2c(nn1C)CN(C)S(=O)(=O)CCCn1c(C(=O)O)c(CCCOc3ccc(F)c4ccccc34)c3ccc(Cl)c-2c31` [Example 24, (rac)-13-Chloro-12-ethyl-1-(34(4-fluoronaphthalen-1-yl)oxy)propyl)-8,11-dimethyl-4,5,6,8,9,11-hexahydropyrazolo[3′,4′:4,5][1,2,8]thiadiazacycloundecino[6,7,8-hi]indole-2-carboxylic acid 7,7-dioxide] were, in that order, more than 20000 nM, 4.3e-06 M, 2.4e-06 M and 2300 nM.
